Source: PubChem BioAssay AID1919013 (Molecular Pharmacology Branch, DTP, NCI, 2023)
Where “and” joins values, the source holds several entries; their conditions need not be identical. Identical values can stand only once.

Tested on: LG0703-F498-PDC complex spheroid growth
Experiment: Anticancer human tumor LG0703-F498-PDC patient-derived lung adenocarcinoma cell line growth inhibition [AhR]
Conditions: for viability, T/C: stronger effect = lower value
Outline: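 Complex tumor spheroids co-cultured with HUVEC and human MSC stroma; AhR antagonists tested in combination with standard-of-care and investigational agents. Top concentration at or near clinical Cmax (else 10 microM), half-log dilutions; growth expressed as percent test/control.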

[1] = curve of first compound, second compound 0.1 µM
[2] = curve of first compound, second compound 0.316 µM
[3] = curve of first compound, second compound 1 µM
[4] = curve of first compound, second compound 3.16 µM
[5] = curve of first compound, second compound 10 µM
[6] = second compound 0.1 µM, first compound 0.000949 µM
[7] = second compound 0.1 µM, first compound 0.003 µM
[8] = second compound 0.1 µM, first compound 0.00949 µM
[9] = second compound 0.1 µM, first compound 0.03 µM
[10] = second compound 0.1 µM, first compound 0.0949 µM
[11] = second compound 0.1 µM, first compound 0.3 µM
[12] = second compound 0.316 µM, first compound 0.000949 µM
[13] = second compound 0.316 µM, first compound 0.003 µM
[14] = second compound 0.316 µM, first compound 0.00949 µM
[15] = second compound 0.316 µM, first compound 0.03 µM
[16] = second compound 0.316 µM, first compound 0.0949 µM
[17] = second compound 0.316 µM, first compound 0.3 µM
[18] = second compound 1 µM, first compound 0.000949 µM
[19] = second compound 1 µM, first compound 0.003 µM
[20] = second compound 1 µM, first compound 0.00949 µM
[21] = second compound 1 µM, first compound 0.03 µM
[22] = second compound 1 µM, first compound 0.0949 µM
[23] = second compound 1 µM, first compound 0.3 µM
[24] = second compound 3.16 µM, first compound 0.000949 µM
[25] = second compound 3.16 µM, first compound 0.003 µM
[26] = second compound 3.16 µM, first compound 0.00949 µM
[27] = second compound 3.16 µM, first compound 0.03 µM
[28] = second compound 3.16 µM, first compound 0.0949 µM
[29] = second compound 3.16 µM, first compound 0.3 µM
[30] = second compound 10 µM, first compound 0.000949 µM
[31] = second compound 10 µM, first compound 0.003 µM
[32] = second compound 10 µM, first compound 0.00949 µM
[33] = second compound 10 µM, first compound 0.03 µM
[34] = second compound 10 µM, first compound 0.0949 µM
[35] = second compound 10 µM, first compound 0.3 µM
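Also: luminescence taken as a proxy for viable cell amount.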
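For viability, T/C in this document: percent of DMSO vehicle control where 100% means growth equal to vehicle.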

IC50 [1]	IC50 [2]	IC50 [3]	IC50 [4]	IC50 [5]	Structure (SMILES)	viability, T/C [6]	viability, T/C [7]	viability, T/C [8]	viability, T/C [9]	viability, T/C [10]	viability, T/C [11]	viability, T/C [12]	viability, T/C [13]	viability, T/C [14]	viability, T/C [15]	viability, T/C [16]	viability, T/C [17]	viability, T/C [18]	viability, T/C [19]	viability, T/C [20]	also measured
					O=C(C=Cn1cnc(-c2cc(C(F)(F)F)cc(C(F)(F)F)c2)n1)NNc1cnccn1																viability, T/C (compound 0.00949 µM): 84.1% and 93.9% and 79.2%; viability, T/C (compound 0.03 µM): 83.7% and 79.7% and 62.9%; viability, T/C (compound 0.0949 µM): 55.5% and 52% and 41.8%; viability, T/C (compound 0.3 µM): 48.2% and 37.7% and 35.7%; viability, T/C (compound 0.949 µM): 40.9% and 39.8% and 39.1%; viability, T/C (compound 3 µM): 31.4% and 35.3% and 32.7%; IC50 (curve of compound): 215 nM and 109 nM and 60.6 nM
> 300 nM	> 300 nM	> 300 nM	> 300 nM	> 300 nM	Nc1ncn(C2CC(O)C(CO)S2)c(=O)n1 (configuration not stated) + Cc1ccccc1N=Nc1ccc(NC(=O)c2ccnn2C)c(C)c1	103%	105%	94.5%	91.5%	94.8%	97.2%	102%	93.9%	92.7%	93.9%	101%	111%	99.3%	89.3%	80.5%	viability, T/C [21]: 98.7%; viability, T/C [22]: 88%; viability, T/C [23]: 82.5%; viability, T/C [24]: 82.5%; viability, T/C [25]: 85.7%; viability, T/C [26]: 86.6%; viability, T/C [27]: 76.1%; viability, T/C [28]: 78.6%; viability, T/C [29]: 103%; viability, T/C [30]: 87%; viability, T/C [31]: 86.8%; viability, T/C [32]: 99%; viability, T/C [33]: 77.4%; viability, T/C [34]: 85%; viability, T/C [35]: 96.9%
15.3 nM	11.1 nM	11.9 nM	< 0.949 nM	< 0.949 nM	CCc1c2c(nc3ccc(O)cc13)-c1cc3c(c(=O)n1C2)COC(=O)[C@]3(O)CC + Cc1cncc(-c2nc(NCCc3c[nH]c4ccccc34)c3ncn(C(C)C)c3n2)c1	102%	82.4%	55.5%	39.3%	29.1%	19.2%	92.1%	72.4%	51.2%	37.1%	25.2%	18.3%	80.5%	76.5%	49.7%	viability, T/C [21]: 35.7%; viability, T/C [22]: 22.1%; viability, T/C [23]: 13.6%; viability, T/C [24]: 44.5%; viability, T/C [25]: 37.7%; viability, T/C [26]: 33%; viability, T/C [27]: 29.1%; viability, T/C [28]: 16.3%; viability, T/C [29]: 11.9%; viability, T/C [30]: 1.16%; viability, T/C [31]: 1.16%; viability, T/C [32]: 2.25%; viability, T/C [33]: 1.82%; viability, T/C [34]: 1.25%; viability, T/C [35]: 1.61%
